# Reference: patent US20190142835A1, “INHIBITION OF AUTOPHAGY USING PHOSPHOLIPASE A2 INHIBITORS” (OREGON HEALTH & SCIENCE UNIVERSITY, priority 2017, published 2019)
# What was measured:
# ACHN cells [1] = experiment: Redox homeostasis (p-AMPK, NADPH, GSSG/GSH, ROS); type: cell-based, human; conditions: 2 μM CYT387, 10 μM MK2206, 24 hr
# Protocol: ROS levels were measured with Cellrox Deep Red (Molecular Probes). Cell were plated in a 96 well clear bottom with black sides cell culture plate. […] The complete media+drug was removed after 24 hours and replaced with 5 μM of Cellrox Deep Red in media. Cells were incubated for 30 min at 370 C then washed with PBS. Fluorescence signal was detected using a Bioteck Cytation 5 plate reader. Data was analyzed using Prism software.
# ACHN cells [2] = experiment: Autophagy flux validation (immunofluorescence, immunoblot, mCherry-EGFP-LC3 reporter, MDC, TEM); type: cell-based, human
# Excerpt: Next, we stably expressed a mChery-EGFP-LC3 reported in ACHN cells. This reporter for autophagic flux takes advantage of the fact that EGFP fluorescence is quenched in the acidic environment of the autolysosome relative to mCherry. […] This method to measure flux has been extensively validated and accurately quantitates autophagic flux induction by multiple stimuli and chemical and genetic inhibition of autophagy. […] LC3-I is normally converted into LC3-II (LC3-I covalently bound to phosphatidylethanolamine) during autophagosome formation but is converted back to LC3-I by protease cleavage during autophagosome maturation.
# Cells were plated in 6 well dishes and treated the following day with the indicated agents. Treatments were for 24 hours, after which cells were washed with ice cold PBS and lysed with RIPA buffer (Sigma). Phosphatase inhibitor cocktail set II and protease inhibitor cocktail set III (EMD Millipore) were added at the time of lysis. Lysates were centrifuged at 15,000 g×10 min at 4 degrees C. Protein concentrations were calculated based on a BCA assay (Thermo Scientific) generated standard curve. Proteins were resolved using the NuPAGE Novex Mini Gel system on 4% to 12% Bis-Tris Gels (Invitrogen). For western blotting, equal amounts of cell lysates (15-20 μg of protein) were resolved with SDSPAGE, and transferred to membranes. The membrane was probed with primary antibodies, washed, and then incubated with corresponding fluorescent secondary antibodies and washed. The fluorescent signal was captured using LI-COR (Lincoln, Nebr.) Odyssey Imaging System, and fluorescent intensity was quantified using the Odyssey software where indicated. The following antibodies were used for Western blots: p-S6 (S240/244), S6, LC3B, p-Akt(S473), p-Akt(T308), Akt, cleaved caspase3 (Cell Signaling Technologies). p-Stat3 (Y705), Stat3 and β-actin (AC15) (Abcam). Ki67 (Dako) and cleaved caspase3 (Cell Signaling Technologies) were used for immunohistochemistry. […] BX795 and GDC0941 were purchased from Sigma.
# Slides were plated on coverslips and allowed to adhere for 24 hours. After adherence, cells were treated with drug for 24 hours. After treatment, drug was removed and cells were washed once in PBS. Cells were labeled with a […] concentration of autofluorescent marker monodansylcadaverine (MDC) in PBS for 10 min at 37 C. Cells were fixed in 4% formaldehyde for 15 min at room temperature. Cells were washed in PBS 2×5 min, and mounted on slides using Dako mounting media with dapi. Coverslips were sealed with clear nail polish and imaged with 3DHistech MIDI Scanner as described above.
# MPN patients = conditions: human, in vivo; cited from earlier work
# SN12C xenografts = experiment: SN12C xenograft study; type: in vivo
# Protocol: 6-week old mice were utilized for human renal cell carcinoma xenografts. For both ACHN and SN12C cell lines 2×10^6 cells were diluted in 50 μl of PBS and 50 μl of Matrigel (BD Biosciences) and were injected subcutaneously into the right and left flank of each mouse. Tumors were monitored until they reached an average size of 50-80 mm3 (approximately 2 weeks), at which point treatments were begun. […] MK2206 (60 mg/kg/day) were administered by oral gavage 2-3 day/week. […] Tumors and mouse weights were measured twice weekly. At least 6-8 mice per treatment group were included. All mice were euthanized using CO2 inhalation followed by cervical dislocation per institutional guidelines at Oregon Health and Science University. Experiments were approved by the Institutional Animal Care and Use Committee at OHSU.
# Immunostaining was performed following deparaffinization and rehydration of slides. Antigen retrieval was performed in a pressure cooker using citrate buffer (pH 6.0) for 4 min. Nonspecific binding was blocked using Vector mouse IgG blocking serum 30 min at room temperature. Samples were incubated at room temperature with rabbit monoclonal antibodies pS6 (CST #5364) cleaved caspase 3 (CST#9661), and Ki67 (Dako#M7240).
# Slides were developed with Vector Immpress rabbit IgG (#MP7401) and Vector Immpress mouse IgG (#MP7400) for 30 min at room temperature. Chromogenic detection was performed using Vector Immpact DAB (#SK4105) for 3 min. Slides were counterstained with hematoxylin. A 3DHistech MIDI Scanner (Perkin Elmer) was used to capture whole slide digital images with a 20× objective. […]
# Mouse tumor size was analyzed by 2-way ANOVA with time and drug as factors, using GraphPad Prism. Mouse weight during treatment was analyzed by repeated measures 2-way ANOVA, with time and drug as factors. […] Immunohistochemistry: P-values were calculated using one-way ANOVA, with Bonferroni's multiple comparison test. * denotes P<0.05, ** denotes P<0.01, and *** denotes P<0.001 throughout this disclosure. […]
# [3] = test system: human RCC cells (ACHN and SN12C); experiment: Phosphoproteomics screen and kinase substrate enrichment analysis; type: cell-based; conditions: phosphoproteome
# Protocol: Enriched phospho-peptides were digested with trypsin and analyzed by mass spectroscopy following the published “Cell Signaling Technology” protocol.
# MS raw files were analyzed via MaxQuant version 1.5.3.30 [73] and MS/MS fragmentation spectra were searched using Andromeda against human canonical and isoform sequences in Swiss-Prot (downloaded in September 2016 from http://uniprot.org). Quantitative phosphopeptide data were log10 transformed and missing data were imputed before applying quantile normalization as previously described. Hierarchical clustering was performed on the Cluster 3.0 program, using distance that is based on the Pearson correlation and applying pairwise average linkage analysis. Java Treeview was used to visualize clustering results.
# Kinase substrate enrichment analysis (KSEA) was performed as previously described. […] Permutation analysis was conducted to calculate statistical significance. The normalized enrichment score was calculated by dividing the enrichment score by the average of the absolute values of all enrichment scores from the permutation analysis.
# [4] = transmission electron microscopy
smiles,measurement,setting,value
N#CCNC(=O)c1ccc(-c2ccnc(Nc3ccc(N4CCOCC4)cc3)n2)cc1 [CYT387],NADPH levels,ACHN cells [1],increases NADPH levels
same,ROS,ACHN cells [1],mitigates ROS
same,p-AMPK,ACHN cells [1],activates p-AMPK
same,p62 protein expression and phosphorylated-S6 levels by immunofluorescence staining,ACHN cells [2]; cells on coverslips,decreased p62 protein expression and phosphorylated-S6 levels
same,phosphorylation of Y705-STAT3,ACHN cells [2]; immunoblot,decrease in phosphorylation of Y705-STAT3
same,LC3-II levels,"ACHN cells [2]; immunoblot, more pronounced with E64D/pepstatin",increased LC3-II levels
same,MDC autoflorescence,ACHN cells [2]; monodansylcadaverine staining,increased MDC autoflorescence
same,time to reduction in LC3B lipidation after removal of drug,ACHN cells [2]; reversal of autophagy,≤ 24 h
same,mChery-EGFP-LC3 reporter of autophagic flux,ACHN cells [2]; stably expressed reporter,decreased expression of green-yellow cells and increased expression of red cells
same,number of double-membraned autophagosomes,ACHN cells [2]; [4],increased the number of double-membraned autophagosomes
same,number of mitochondria and lipid droplets,ACHN cells [2]; [4],increased number of mitochondria and lipid droplets
same,clinical effect in MPN patients,MPN patients,improved splenomegaly and reduced anemia
same,apoptosis (cleaved-caspase3) in tumors,SN12C xenografts; SN12C xenograft tumors,minimal impact on apoptosis
same,antitumor effect of single agent,"SN12C xenografts; SN12C, CYT387 50 mg/kg/day or MK2206 60 mg/kg/day oral gavage",exhibited antitumor effect
same,RICTOR phosphorylation,[3],hypophosphorylated at T^1135
same,STAT3 Y^705 phosphorylation,[3],trended towards hypophosphorylation of STAT3 Y^705
same,"TSC2 phosphorylation (T^1462, S^1798)",[3],hypophosphorylated at two inhibitory phosphoresidues
same,insulin receptor (INSR) Y^1189 phosphorylation,[3],hyperphosphorylation
same,ribosomal protein S6 (RPS6) phosphorylation,[3],trended towards hypophosphorylation
